Laboratory results reported in US9198918B2, “Benzoxazepin PI3K inhibitor compounds and methods of use” (Genentech, Inc., priority 2009, dated 2015).
pEC50, pIC50: −log10 of the molar value.

Assays:
[1] = test system: HCC1954; assay: CellTiter-Glo cell proliferation assay, HCC1954; format: cell-based; settings: Homo sapiens, Breast, mutation status PI3K
Method: (§1) Efficacy of Formula I compounds was measured by a cell proliferation assay employing the following protocol (Promega Corp. Technical Bulletin TB288; Mendoza et al (2002) Cancer Res. 62:5485-5488):
(§2) 1. An aliquot of 100 μl of cell culture containing about 104 cells (PC3, Detroit562, or MDAMB361.1) in medium was deposited in each well of a 384-well, opaque-walled plate.
(§3) 2. Control wells were prepared containing medium and without cells.
(§4) 3. The compound was added to the experimental wells and incubated for 3-5 days.
(§5) 4. The plates were equilibrated to room temperature for approximately 30 minutes.
(§6) 5. A volume of CellTiter-Glo Reagent equal to the volume of cell culture medium present in each well was added.
(§7) 6. The contents were mixed for 2 minutes on an orbital shaker to induce cell lysis.
(§8) 7. The plate was incubated at room temperature for 10 minutes to stabilize the luminescence signal.
(§9) 8. Luminescence was recorded and reported in graphs as RLU=relative luminescence units.
(§10) Alternatively, cells were seeded at optimal density in a 96 well plate and incubated for 4 days in the presence of test compound. Alamar Blue™ was subsequently added to the assay medium, and cells were incubated for 6 hr before reading at 544 nm excitation, 590 nm emission. EC50 values were calculated using a sigmoidal dose response curve fit. The term EC50 refers to the half maximal effective concentration and is the concentration at which a drug induces a response halfway between the baseline and maximum after some specified exposure time. It is commonly used as a measure of drug potency.
(§11) The anti-proliferative effects of Formula I exemplary compounds were measured by the CellTiter-Glo® Assay against various tumor cell lines, including the following: […]

[2] = test system: MDA-MB-361.1; assay: CellTiter-Glo cell proliferation assay, MDA-MB-361.1; format: cell-based; settings: Breast, mutation status PI3K
Method: as §1, §2, §3, §4, §5, §6, §7, §8, §9, §10, §11

[3] = test system: BT474; assay: CellTiter-Glo cell proliferation assay, BT474; format: cell-based; settings: Homo sapiens, BT-474, Breast, mutation status PI3K(amped)
Method: as §1, §2, §3, §4, §5, §6, §7, §8, §9, §10, §11

[4] = test system: T47D; assay: CellTiter-Glo cell proliferation assay, T47D; format: cell-based; settings: Homo sapiens, Breast, mutation status PI3K
Method: as §1, §2, §3, §4, §5, §6, §7, §8, §9, §10, §11

[5] = test system: KPL4; assay: CellTiter-Glo cell proliferation assay, KPL4; format: cell-based; settings: Breast, mutation status PI3K
Method: as §1, §2, §3, §4, §5, §6, §7, §8, §9, §10, §11

[6] = test system: A375; assay: CellTiter-Glo cell proliferation assay, A375; format: cell-based; settings: Homo sapiens, A-375, Melanoma, mutation status B-Raf
Method: as §1, §2, §3, §4, §5, §6
6. […]
as §8, §9
(§12) Alternatively, cells were seeded at optimal density in a 96 well plate and incubated for 4 days in the presence of test compound. Alamar Blue™ was subsequently added to the assay medium, and cells were incubated for 6 hr before reading at 544 nm excitation, 590 nm emission. EC50 values were calculated using a sigmoidal dose response curve fit. […]
as §11

[7] = test system: AU565; assay: CellTiter-Glo cell proliferation assay, AU565; format: cell-based; settings: Homo sapiens, Breast, mutation status WT
Method: as §1, §2, §3, §4, §5, §6, §7, §8, §9, §10, §11

[8] = test system: MDA-MB-231; assay: CellTiter-Glo cell proliferation assay, MDA-MB-231; format: cell-based; settings: Homo sapiens, Breast, mutation status K-RAS
Method: as §1, §2, §3, §4, §5, §6
6. […]
as §8, §9, §12, §11

[9] = test system: TOV21GX1; assay: CellTiter-Glo cell proliferation assay, TOV21GX1; format: cell-based; settings: Ovarian, mutation status PI3K/PTEN
Method: as §1, §2, §3, §4, §5, §6
6. […]
as §8, §9, §12, §11

[10] = test system: PC3; assay: CellTiter-Glo cell proliferation assay, PC3; format: cell-based; settings: Homo sapiens, PC-3, Prostate, mutation status PTEN
Method: as §1, §2, §3, §4, §5, §6, §7, §8, §9, §10, §11

[11] = test system: SKBR3; assay: CellTiter-Glo cell proliferation assay, SKBR3; format: cell-based; settings: Homo sapiens, SK-BR-3, Breast, mutation status WT
Method: as §1, §2, §3, §4, §5, §6
6. […]
as §8, §9, §12, §11

[12] = test system: H1703; assay: CellTiter-Glo cell proliferation assay, H1703; format: cell-based; settings: Homo sapiens, NCI-H1703, Lung(NSCLC), mutation status WT
Method: as §1, §2, §3, §4, §5, §6
6. […]
as §8, §9, §12, §11

[13] = test system: H2122; assay: CellTiter-Glo cell proliferation assay, H2122; format: cell-based; settings: Homo sapiens, NCI-H2122, Lung(NSCLC), mutation status K-RAS
Method: as §1, §2, §3, §4, §5, §6, §7, §8, §9, §10, §11

[14] = target: T1, PI3K alpha (p110 alpha) (Homo sapiens, UniProt P42336); assay: PI3K p110α (alpha) binding assay (Example 901); settings: read-out: IC50, inhibition of PI3K alpha (binding to p110 alpha)
T1 construct: purchased Upstate Cell Signaling Solutions, Charlottesville, Va
T1 sequence (P42336 whole entry): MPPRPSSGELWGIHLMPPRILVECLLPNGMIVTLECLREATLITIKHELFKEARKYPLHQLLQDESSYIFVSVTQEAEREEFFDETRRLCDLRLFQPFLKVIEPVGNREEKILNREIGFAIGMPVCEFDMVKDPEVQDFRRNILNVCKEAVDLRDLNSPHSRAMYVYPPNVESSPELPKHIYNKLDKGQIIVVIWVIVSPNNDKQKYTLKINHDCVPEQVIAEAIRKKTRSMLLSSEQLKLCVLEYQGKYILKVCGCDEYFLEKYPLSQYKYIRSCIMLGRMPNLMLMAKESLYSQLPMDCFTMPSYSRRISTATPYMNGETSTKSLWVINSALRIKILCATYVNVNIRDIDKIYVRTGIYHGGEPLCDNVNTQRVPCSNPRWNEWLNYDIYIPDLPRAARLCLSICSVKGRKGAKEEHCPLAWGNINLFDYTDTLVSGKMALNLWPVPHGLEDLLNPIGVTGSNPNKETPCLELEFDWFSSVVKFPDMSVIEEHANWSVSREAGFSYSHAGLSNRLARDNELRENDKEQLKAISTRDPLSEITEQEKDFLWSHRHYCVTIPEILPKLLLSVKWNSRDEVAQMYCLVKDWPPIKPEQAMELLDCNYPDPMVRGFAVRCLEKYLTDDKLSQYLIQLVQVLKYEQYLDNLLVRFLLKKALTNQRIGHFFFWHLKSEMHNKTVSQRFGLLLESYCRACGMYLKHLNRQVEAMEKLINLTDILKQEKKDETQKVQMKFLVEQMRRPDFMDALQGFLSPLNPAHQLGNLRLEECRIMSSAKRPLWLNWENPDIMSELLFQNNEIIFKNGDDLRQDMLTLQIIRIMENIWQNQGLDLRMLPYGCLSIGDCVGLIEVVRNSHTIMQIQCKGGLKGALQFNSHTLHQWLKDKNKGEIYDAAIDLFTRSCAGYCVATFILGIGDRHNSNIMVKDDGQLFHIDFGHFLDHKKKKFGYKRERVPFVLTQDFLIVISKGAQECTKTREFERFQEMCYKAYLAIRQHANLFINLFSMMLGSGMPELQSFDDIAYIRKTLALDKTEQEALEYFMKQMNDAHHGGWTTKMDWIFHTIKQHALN
T1 sequence (P27986 whole entry partner): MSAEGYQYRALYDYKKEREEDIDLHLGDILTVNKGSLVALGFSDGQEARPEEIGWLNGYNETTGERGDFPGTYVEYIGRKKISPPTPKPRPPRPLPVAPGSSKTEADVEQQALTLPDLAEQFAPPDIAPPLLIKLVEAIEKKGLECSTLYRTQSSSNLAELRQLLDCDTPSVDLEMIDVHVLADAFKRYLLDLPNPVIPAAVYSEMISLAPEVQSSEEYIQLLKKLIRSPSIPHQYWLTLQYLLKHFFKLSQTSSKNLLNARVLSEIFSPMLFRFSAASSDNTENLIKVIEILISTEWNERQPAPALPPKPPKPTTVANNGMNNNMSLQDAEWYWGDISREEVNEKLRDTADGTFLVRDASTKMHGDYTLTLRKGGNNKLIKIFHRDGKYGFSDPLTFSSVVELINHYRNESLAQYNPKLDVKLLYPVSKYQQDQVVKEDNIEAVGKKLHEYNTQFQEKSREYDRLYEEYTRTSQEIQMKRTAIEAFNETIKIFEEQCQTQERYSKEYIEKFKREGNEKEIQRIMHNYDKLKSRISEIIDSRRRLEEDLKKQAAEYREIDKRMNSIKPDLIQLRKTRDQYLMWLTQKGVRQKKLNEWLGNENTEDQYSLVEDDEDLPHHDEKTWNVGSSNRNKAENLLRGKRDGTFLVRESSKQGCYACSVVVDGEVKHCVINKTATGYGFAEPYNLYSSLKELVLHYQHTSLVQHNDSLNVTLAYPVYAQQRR
Description: Determination of the PI3 kinase activity of a Formula I compound is possible by a number of direct and indirect detection methods.

[15] = test system: CAL51; assay: CellTiter-Glo cell proliferation assay, CAL51; format: cell-based; settings: Homo sapiens, CAL-51, Breast, mutation status PI3K/PTEN
Method: as §1, §2, §3, §4, §5, §6
6. […]
as §8, §9, §12, §11

[16] = test system: EVSA-T; assay: CellTiter-Glo cell proliferation assay, EVSA-T; format: cell-based; settings: Homo sapiens, Breast, mutation status PTEN
Method: as §1, §2, §3, §4, §5, §6, §7, §8, §9, §10, §11

[17] = test system: RKO; assay: CellTiter-Glo cell proliferation assay, RKO; format: cell-based; settings: Homo sapiens, Colon, mutation status PI3K
Method: as §1, §2, §3, §4, §5, §6
6. […]
as §8, §9, §12, §11

[18] = test system: A2058; assay: CellTiter-Glo cell proliferation assay, A2058; format: cell-based; settings: Homo sapiens, Melanoma, mutation status PTEN
Method: as §1, §2, §3, §4, §5, §6
6. […]
as §8, §9, §12, §11

[19] = test system: CAL120; assay: CellTiter-Glo cell proliferation assay, CAL120; format: cell-based; settings: Homo sapiens, CAL-120, Breast, mutation status WT
Method: as §1, §2, §3, §4, §5, §6
6. […]
as §8, §9, §12, §11

[20] = test system: Colo205; assay: CellTiter-Glo cell proliferation assay, Colo205; format: cell-based; settings: Homo sapiens, COLO 205, Colon, mutation status B-Raf
Method: as §1, §2, §3, §4, §5, §6
6. […]
as §8, §9, §12, §11

[21] = test system: MCF7; assay: CellTiter-Glo cell proliferation assay, MCF7; format: cell-based; settings: Homo sapiens, Breast, mutation status PI3K
Method: as §1, §2, §3, §4, §5, §6
6. […]
as §8, §9, §12, §11

[22] = test system: MFM223; assay: CellTiter-Glo cell proliferation assay, MFM223; format: cell-based; settings: Homo sapiens, MFM-223, Breast, mutation status PI3K
Method: as §1, §2, §3, §4, §5, §6, §7, §8, §9, §10, §11

[23] = test system: IGROV1; assay: CellTiter-Glo cell proliferation assay, IGROV1; format: cell-based; settings: Homo sapiens, IGROV-1, Ovarian, mutation status PI3K
Method: as §1, §2, §3, §4, §5, §6
6. […]
as §8, §9, §12, §11

[24] = test system: LN229; assay: CellTiter-Glo cell proliferation assay, LN229; format: cell-based; settings: Homo sapiens, LN-229, Glioma, mutation status PI3K
Method: as §1, §2, §3, §4, §5, §6
6. […]
as §8, §9, §12, §11

[25] = test system: EFM19-2A; assay: CellTiter-Glo cell proliferation assay, EFM19-2A; format: cell-based; settings: EFM-192A, Breast, mutation status WT
Method: as §1, §2, §3, §4, §5, §6
6. […]
as §8, §9, §12, §11

[26] = test system: U87MG; assay: CellTiter-Glo cell proliferation assay, U87MG; format: cell-based; settings: Homo sapiens, U-87 MG, Glioma, mutation status PTEN
Method: as §1, §2, §3, §4, §5, §6
6. […]
as §8, §9, §12, §11

[27] = test system: 537MEL; assay: CellTiter-Glo cell proliferation assay, 537MEL; format: cell-based; settings: Homo sapiens, Melanoma, mutation status PTEN
Method: as §1, §2, §3, §4, §5, §6
6. […]
as §8, §9, §12, §11

[28] = test system: HCT116; assay: CellTiter-Glo cell proliferation assay, HCT116; format: cell-based; settings: Homo sapiens, HCT-116, Colon, mutation status PI3K/KRAS
Method: as §1, §2, §3, §4, §5, §6
6. […]
as §8, §9, §12, §11

[29] = test system: H520; assay: CellTiter-Glo cell proliferation assay, H520; format: cell-based; settings: Homo sapiens, NCI-H520, Lung(NSCLC), mutation status PTEN
Method: as §1, §2, §3, §4, §5, §6
6. […]
as §8, §9, §12, §11

[30] = test system: MDST8; assay: CellTiter-Glo cell proliferation assay, MDST8; format: cell-based; settings: Colon, mutation status PTEN
Method: as §1, §2, §3, §4, §5, §6
6. […]
as §8, §9, §12, §11

[31] = test system: KM12; assay: CellTiter-Glo cell proliferation assay, KM12; format: cell-based; settings: Homo sapiens, Colon, mutation status PTEN
Method: as §1, §2, §3, §4, §5, §6
6. […]
as §8, §9, §12, §11

pEC50 [1] | pEC50 [2] | pEC50 [3] | pEC50 [4] | pEC50 [6] | pEC50 [10] | pEC50 [13] | pEC50 [26] | Structure (SMILES) | pEC50 [5] | pEC50 [7] | pEC50 [11] | pEC50 [16] | pEC50 [22] | further results
6.89 | 6.75 | 7.07 | 7.35 | 5.00 | – | – | – | Cc1nc(-c2cn3c(n2)-c2ccc(-c4cnn(C(C)(C)C(N)=O)c4)cc2OCC3)n(C(C)C)n1 [compound 196, 2-(4-(2-(1-isopropyl-3-methyl-1H-1,2,4-triazol-5-yl)-5,6-dihydrobenzo[f]imidazo[1,2-d][1,4]oxazepin-9-yl)-1H-pyrazol-1-yl)-2-methylpropanamide] | 7.80 | 6.82 | – | – | – | –
6.77 | 6.67 | – | 6.91 | ≤ 5.00 | 6.11 | 6.29 | 6.10 | CC(C)n1ncnc1-c1cn2c(n1)-c1ccc(-c3cnn(CC(C)(C)O)c3)cc1OCC2 [compound 180, 1-(4-(2-(1-isopropyl-1H-1,2,4-triazol-5-yl)-5,6-dihydrobenzo[f]imidazo[1,2-d][1,4]oxazepin-9-yl)-1H-pyrazol-1-yl)-2-methylpropan-2-ol] | 7.41 | 6.64 | 6.84 | 5.69 | 6.36 | pEC50 [8]: ≤ 5.00; pEC50 [9]: 5.44; pEC50 [12]: 6.65; pIC50 [14]: 9.74; pEC50 [15]: 6.17; pEC50 [17]: 5.60; pEC50 [18]: ≤ 5.00; pEC50 [19]: 5.67; pEC50 [20]: 6.59; pEC50 [21]: 6.92; pEC50 [23]: 7.22; pEC50 [24]: 6.06; pEC50 [25]: 6.84; pEC50 [27]: 5.61; pEC50 [28]: 5.99
5.47 | ≤ 5.00 | 5.78 | 6.12 | – | 6.12 | ≤ 5.00 | 5.24 | CC(C)n1ncnc1-c1cn2c(n1)-c1ccc(-c3cn(CCO)cn3)cc1OCC2 [compound 207, 2-(4-(2-(1-isopropyl-1H-1,2,4-triazol-5-yl)-5,6-dihydrobenzo[f]imidazo[1,2-d][1,4]oxazepin-9-yl)-1H-imidazol-1-yl)ethanol] | 5.87 | 5.43 | – | 5.75 | 5.14 | pEC50 [29]: 5.89; pEC50 [30]: 5.11; pEC50 [31]: ≤ 5.00
– | 5.98 | – | – | – | 6.00 | – | – | NC(=O)c1ccc2c(c1)OCCc1cn(-c3ncnn3-c3ccc(F)cc3F)nc1-2 [compound 107, 2-(1-(2,4-difluorophenyl)-1H-1,2,4-triazol-5-yl)-4,5-dihydrobenzo-2H-oxepino[4,5-d]pyrazole-8-carboxamide] | – | 6.59 | – | 5.85 | – | –

Structure (SMILES) | pEC50 [1] | pEC50 [2] | pEC50 [3] | pEC50 [4] | pEC50 [6] | pEC50 [10] | pEC50 [13] | pEC50 [26] | pEC50 [5] | pEC50 [7] | pEC50 [11] | pEC50 [16] | pEC50 [22] | further results
Cc1nc(-c2cn3c(n2)-c2ccc(-c4cnn(CCO)c4)cc2OCC3)n(C(C)C)n1 [compound 186, 2-(4-(2-(1-isopropyl-3-methyl-1H-1,2,4-triazol-5-yl)-5,6-dihydrobenzo[f]imidazo[1,2-d][1,4]oxazepin-9-yl)-1H-pyrazol-1-yl)ethanol] | 6.38 | 6.15 | 6.49 | 6.88 | – | 5.89 | 5.53 | – | 7.06 | 6.33 | 6.07 | 5.70 | 5.96 | –
